# In the supplement of paper PMC10307832:
# Experiments:
# Test in all cases: relative viability (nuclei count vs DMSO), 5 days (fraction); higher = more cells survive
# HCC-366 = system: HCC-366
# Method in brief: (§1)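 Lung cancer cell lines were pin-tool dosed in 1536-well plates on the day after seeding, with either a lone drug or a fixed anchor-drug dose plus five library-drug doses (not always all listed) in √10 steps. Nuclei were counted on 4× images after 5 days. Relative viability is the ratio of treated-well to vehicle-well nuclei counts, with each value a median of duplicate plates.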
# NCI-H2009 = system: NCI-H2009
# Method in brief: as §1
# NCI-H2228 = system: NCI-H2228
# Method in brief: as §1
# NCI-H23 = system: NCI-H23
# Method in brief: as §1
# NCI-H1944 = system: NCI-H1944
# Method in brief: as §1
# NCI-H2405 = system: NCI-H2405
# Method in brief: as §1
# ABC-1 = system: ABC-1
# Method in brief: as §1
# SK-LU-1 = system: SK-LU-1
# Method in brief: as §1
# NCI-H2023 = system: NCI-H2023
# Method in brief: as §1
# UMC-11 = system: UMC-11
# Method in brief: as §1
# HCC-15 = system: HCC-15
# Method in brief: as §1
# NCI-H1734 = system: NCI-H1734
# Method in brief: as §1
# EMC-BAC-2 = system: EMC-BAC-2
# Method in brief: as §1
# COR-L23 = system: COR-L23
# Method in brief: as §1
# LC-2-ad = system: LC-2-ad
# Method in brief: as §1
# NCI-H838 = system: NCI-H838
# Method in brief: as §1
# ChaGo-K-1 = system: ChaGo-K-1
# Method in brief: as §1
# A-427 = system: A-427
# Method in brief: as §1
# HARA = system: HARA
# Method in brief: as §1
# NCI-H1993 = system: NCI-H1993
# Method in brief: as §1
# HCC-78 = system: HCC-78
# Method in brief: as §1
# NCI-H2126 = system: NCI-H2126
# Method in brief: as §1
smiles,measurement,setting,value
O=C(O)c1ccc(-c2c[nH]c3ncc(-c4ccccc4)cc23)cc1C1CCCC1 + C[C@@H](Oc1cc(-c2cnn(C3CCNCC3)c2)cnc1N)c1c(Cl)ccc(F)c1Cl [Crizotinib] (partner 1 µM),relative viability,HCC-366; first compound 0.04 µM,0.502
same,relative viability,HCC-366; first compound 0.1265 µM,0.686
same,relative viability,HCC-366; first compound 0.4 µM,0.619
same,relative viability,HCC-366; first compound 1.265 µM,0.696
same,relative viability,NCI-H2009; first compound 0.04 µM,0.994
same,relative viability,NCI-H2009; first compound 0.1265 µM,1.05
same,relative viability,NCI-H2009; first compound 0.4 µM,0.931
same,relative viability,NCI-H2009; first compound 1.265 µM,0.666
same,relative viability,NCI-H2228; first compound 0.04 µM,0.62
same,relative viability,NCI-H2228; first compound 0.1265 µM,0.556
same,relative viability,NCI-H2228; first compound 0.4 µM,0.469
same,relative viability,NCI-H2228; first compound 1.265 µM,0.292
same,relative viability,NCI-H23; first compound 0.04 µM,0.689
same,relative viability,NCI-H23; first compound 0.1265 µM,0.598
same,relative viability,NCI-H23; first compound 0.4 µM,0.482
same,relative viability,NCI-H23; first compound 1.265 µM,0.484
same,relative viability,NCI-H1944; first compound 0.04 µM,1.03
same,relative viability,NCI-H1944; first compound 0.1265 µM,1.14
same,relative viability,NCI-H1944; first compound 0.4 µM,1.08
same,relative viability,NCI-H1944; first compound 1.265 µM,1.01
same,relative viability,NCI-H2405; first compound 0.04 µM,0.862
same,relative viability,NCI-H2405; first compound 0.1265 µM,0.94
same,relative viability,NCI-H2405; first compound 0.4 µM,0.841
same,relative viability,NCI-H2405; first compound 1.265 µM,0.715
same,relative viability,ABC-1; first compound 0.04 µM,1.4
same,relative viability,ABC-1; first compound 0.1265 µM,1.06
same,relative viability,ABC-1; first compound 0.4 µM,1.18
same,relative viability,ABC-1; first compound 1.265 µM,0.98
same,relative viability,SK-LU-1; first compound 0.04 µM,0.927
same,relative viability,SK-LU-1; first compound 0.1265 µM,0.901
same,relative viability,SK-LU-1; first compound 0.4 µM,0.719
same,relative viability,SK-LU-1; first compound 1.265 µM,0.682
same,relative viability,NCI-H2023; first compound 0.04 µM,0.639
same,relative viability,NCI-H2023; first compound 0.1265 µM,0.669
same,relative viability,NCI-H2023; first compound 0.4 µM,0.572
same,relative viability,NCI-H2023; first compound 1.265 µM,0.603
same,relative viability,UMC-11; first compound 0.04 µM,0.587
same,relative viability,UMC-11; first compound 0.1265 µM,0.629
same,relative viability,UMC-11; first compound 0.4 µM,0.646
same,relative viability,UMC-11; first compound 1.265 µM,0.612
same,relative viability,HCC-15; first compound 0.04 µM,0.845
same,relative viability,HCC-15; first compound 0.1265 µM,0.79
same,relative viability,HCC-15; first compound 0.4 µM,0.633
same,relative viability,HCC-15; first compound 1.265 µM,0.339
same,relative viability,NCI-H1734; first compound 0.04 µM,0.752
same,relative viability,NCI-H1734; first compound 0.1265 µM,0.705
same,relative viability,NCI-H1734; first compound 0.4 µM,0.601
same,relative viability,NCI-H1734; first compound 1.265 µM,0.543
same,relative viability,EMC-BAC-2; first compound 0.04 µM,0.76
same,relative viability,EMC-BAC-2; first compound 0.1265 µM,0.806
same,relative viability,EMC-BAC-2; first compound 0.4 µM,0.671
same,relative viability,EMC-BAC-2; first compound 1.265 µM,0.672
same,relative viability,COR-L23; first compound 0.04 µM,0.584
same,relative viability,COR-L23; first compound 0.1265 µM,0.508
same,relative viability,COR-L23; first compound 0.4 µM,0.681
same,relative viability,COR-L23; first compound 1.265 µM,0.476
same,relative viability,LC-2-ad; first compound 0.04 µM,0.496
same,relative viability,LC-2-ad; first compound 0.1265 µM,0.452
same,relative viability,LC-2-ad; first compound 0.4 µM,0.412
same,relative viability,LC-2-ad; first compound 1.265 µM,0.364
same,relative viability,NCI-H838; first compound 0.04 µM,0.794
same,relative viability,NCI-H838; first compound 0.1265 µM,0.952
same,relative viability,NCI-H838; first compound 0.4 µM,0.848
same,relative viability,NCI-H838; first compound 1.265 µM,0.88
same,relative viability,ChaGo-K-1; first compound 0.04 µM,1.11
same,relative viability,ChaGo-K-1; first compound 0.1265 µM,1.1
same,relative viability,ChaGo-K-1; first compound 0.4 µM,1.04
same,relative viability,ChaGo-K-1; first compound 1.265 µM,0.846
same,relative viability,A-427; first compound 0.04 µM,0.941
same,relative viability,A-427; first compound 0.1265 µM,0.845
same,relative viability,A-427; first compound 0.4 µM,0.86
same,relative viability,A-427; first compound 1.265 µM,0.852
same,relative viability,HARA; first compound 0.04 µM,0.985
same,relative viability,HARA; first compound 0.1265 µM,1.04
same,relative viability,HARA; first compound 0.4 µM,1.02
same,relative viability,HARA; first compound 1.265 µM,0.763
same,relative viability,NCI-H1993; first compound 0.04 µM,0.805
same,relative viability,NCI-H1993; first compound 0.4 µM,0.805
same,relative viability,NCI-H1993; first compound 1.265 µM,0.812
same,relative viability,HCC-78; first compound 0.04 µM,0.338
same,relative viability,HCC-78; first compound 0.1265 µM,0.381
same,relative viability,HCC-78; first compound 0.4 µM,0.328
same,relative viability,HCC-78; first compound 1.265 µM,0.293
same,relative viability,NCI-H2126; first compound 0.04 µM,1.04
same,relative viability,NCI-H2126; first compound 0.1265 µM,1.03
same,relative viability,NCI-H2126; first compound 0.4 µM,0.995
same,relative viability,NCI-H2126; first compound 1.265 µM,0.824
